In this assay the test system is normal human bronchial epithelial cells (NHBE). The assay can be described thus: Cumulative dose kinetic responses of intracellular Ca++, Cl- and cell membrane potential (simultaneous Fluo-3, di-MEQ and RH421 fluorescence photon counting). The class given is cell-based. The procedure:
Normal human bronchial/tracheal epithelial cells (NHBE, Clonetics) were cultured in T-25 cm^2 flasks at 37° C., 5% CO2 using Bronchial/Tracheal Epithelial Cell Growth Medium containing Retinoic Acid (BEGM, w/RA, Clonetics). When the NHBE cells in the T-25 flasks reached 60%-80% confluency, the cells were passaged using a seeding density of 3500 cells/cm^2. A portion of the cells was passaged in T-25 flasks again while the remaining cells were seeded on UV-exposed Vitrogen (pH balanced 1:1 BEGM to Vitrogen) coated 4-well cover glass chambers (LabTek II). NHBE cells normally attached to the collagen-coated cover glass chamber within 24 hrs. Prior to these cells reaching 60% confluency, they were used for all the experiments described below. Cells used in all the experiments were either 2nd or 3rd passage cells maintained in Bronchial/Tracheal Epithelial Cell Growth Medium with Retinoic Acid (BEGM, w/RA, Clonetics).
The following procedures for loading the cells with fluorophore were employed. Balanced Hank's (BH) solution without phenol red was used as the medium for all the fluorophore preparations and cell washings unless stated otherwise. Fluo-3 (a Ca^++ indicator), di-MEQ (a Cl^− indicator) and RH421 (a cell membrane potential indicator) were loaded into cells sequentially at room temperature. Cells were first incubated with 8 μM Fluo-3 solution for 60 minutes, followed by incubating with 50 μM di-MEQ for 5 minutes and then finally with 10 μM RH421 for 5 minutes. Extraneous dyes were washed with BH solution between each fluorophore loading procedure. The cells were allowed to stabilize in BEGM for a minimum of 15 minutes at room temperature prior to the beginning of each experiment.
Experiments were performed at room temperature. All tested agents were prepared in Balanced Hank's Solution. One of the wells of the cover glass chamber was placed on the stage of the inverted microscope and the cells loaded with the fluorophores were visually focused with the violet, green and orange emitted light from the cells approximately in the same focal plane. At a sampling frequency of 100 Hz, cells with the following photon counts were chosen for the study: 20 to 50 counts per channel (cpc) for Ca^++ fluorescence, 70 to 200 cpc for Cl^− fluorescence, and 20 to 50 cpc for cell membrane potential fluorescence. After establishing a 2 minute baseline, increasing doses of the agent of interest were added topically to the wells 2 minutes apart. At the end of each experiment, a toxic dose of the agent of interest was added to the sample to either shrink or swell the cells beyond their normal cell volume regulatory range. This caused the fluorescence signals of each of these fluorophores to reach either maximum or minimum values. […] Background fluorescence was recorded using a cell free area of the same well. If the signal to background ratio was not higher than a factor of 10, the experiments were also discarded.
The kinetic responses were measured as photon counts acquired in 10 ms intervals over>800 seconds. […] The correlation of these events and their kinetics, observations that can only be made with the present invention, provides unique insights into the mechanism by which Glibenclamide affects the cells.
UTP is a ligand to the p2Y receptor. The kinetic responses were measured as photon counts acquired in 10 ms intervals over >800 seconds.
Hyperpolarization of the cell membrane can also be induced via different cellular mechanisms such as by decreasing intracellular potassium. […] The kinetic responses were measured as photon counts acquired in 10 ms intervals over >900 seconds. It should be noted that the relative potencies of these agents in terms of the mechanisms for eliciting the temporal responses, the duration of the agent actions and the magnitude of hyperpolarization of the cell membrane can be compared and monitored for the first time. […]

For the compound `COc1ccc(Cl)cc1C(=O)NCCc1ccc(S(=O)(=O)NC(=O)NC2CCCCC2)cc1` [Glibenclamide], where the note is “500 μM”, the “intracellular Ca++ response” value is given as “rapid increase”, the “intracellular Cl- response” value was “simultaneous drop” and the membrane potential response entry is recorded as “simultaneous increase”. For the same compound, the “cell membrane potential response” value (Glibenclamide 25 μM to 500 μM cumulative) is recorded as “hyperpolarized the cell membrane”. Besides, the “[Cl-]i response” value (Glibenclamide 25 μM to 500 μM cumulative, MEQ fluorescence inversely proportional to [Cl-]i) is recorded as “increased”. Also, under “concentrations below 500 μM”, the “intracellular Ca++ response” value was “little affected”, the “intracellular Cl- response” value is listed as “declines as Glibenclamide concentration increases” and the membrane potential response entry was “little affected”.

As for `O=c1ccn([C@@H]2O[C@H](COP(=O)(O)OP(=O)(O)OP(=O)(O)O)[C@@H](O)[C@H]2O)c(=O)[nH]1` [UTP, uridine triphosphate], under “0.1 mM and 1 mM”, the “intracellular Cl- response” value is recorded as “essentially no changes” and the membrane potential response result is on record as “essentially no changes”. Also, under “0.1 mM and 1 mM, increase followed by a measurable rate of decline”, the “intracellular Ca++ response” value is “rapid increase”.

The record behind these values is patent US20040110206A1, “Waveform modulated light emitting diode (LED) light source for use in a method of and apparatus for screening to identify drug candidates” (Bio TechPlex Corporation, priority 2002, published 2004).
